# Measured values reported in patent US5858684A, “Method of screening calcium receptor-active molecules” (priority 1995, dated 1999).
# Entries after “also recorded” stand apart in the source; their conditions may differ. Read-outs that look alike come from different tables or passages of the source.
# Key:
# circulating PTH in rats = assay type: in vivo, rat
# [1] = hypocalcemic response in thyroidectomized rats; assay type: in vivo, rat; conditions: 3 to 100 mg/kg p.o.
# Source text: In subsequent studies, rats received a thyroidectomy (parathyroid glands intact). This surgical procedure effectively removed the C-cells secreting calcitonin and therefore enabled the relative contributions of PTH and calcitonin to the hypocalcemic effect of this compound to be determined. […] The only difference was that the rate of onset of the hypocalcemic response was somewhat delayed in thyroidectomized animals. […] Stimulatory effects of this compound on calcitonin secretion increases the rate of onset, but not the extent, of hypocalcemia.
# [2] = serum ionized calcium in a human; assay type: in vivo; conditions: higher oral doses
# Source text: A range of single oral doses was used to assess safety, tolerance, and changes in primary hyperparathyroidism markers (e.g., plasma concentrations of parathyroid hormone and ionized serum calcium) and of serum calcitonin.
# [3] = hypocalcemic response in nephrectomized rats; assay type: in vivo, rat; conditions: oral
# Source text: The decreases in serum levels of PTH together with. the resulting hypocalcemia are desirable therapeutic effects in cases of hyperparathyroidism.
# [4] = target: T1, human parathyroid cells (calcium receptor) (Homo sapiens, UniProt P41180); assay type: cell-based
# T1 sequence (P41180 20-1078): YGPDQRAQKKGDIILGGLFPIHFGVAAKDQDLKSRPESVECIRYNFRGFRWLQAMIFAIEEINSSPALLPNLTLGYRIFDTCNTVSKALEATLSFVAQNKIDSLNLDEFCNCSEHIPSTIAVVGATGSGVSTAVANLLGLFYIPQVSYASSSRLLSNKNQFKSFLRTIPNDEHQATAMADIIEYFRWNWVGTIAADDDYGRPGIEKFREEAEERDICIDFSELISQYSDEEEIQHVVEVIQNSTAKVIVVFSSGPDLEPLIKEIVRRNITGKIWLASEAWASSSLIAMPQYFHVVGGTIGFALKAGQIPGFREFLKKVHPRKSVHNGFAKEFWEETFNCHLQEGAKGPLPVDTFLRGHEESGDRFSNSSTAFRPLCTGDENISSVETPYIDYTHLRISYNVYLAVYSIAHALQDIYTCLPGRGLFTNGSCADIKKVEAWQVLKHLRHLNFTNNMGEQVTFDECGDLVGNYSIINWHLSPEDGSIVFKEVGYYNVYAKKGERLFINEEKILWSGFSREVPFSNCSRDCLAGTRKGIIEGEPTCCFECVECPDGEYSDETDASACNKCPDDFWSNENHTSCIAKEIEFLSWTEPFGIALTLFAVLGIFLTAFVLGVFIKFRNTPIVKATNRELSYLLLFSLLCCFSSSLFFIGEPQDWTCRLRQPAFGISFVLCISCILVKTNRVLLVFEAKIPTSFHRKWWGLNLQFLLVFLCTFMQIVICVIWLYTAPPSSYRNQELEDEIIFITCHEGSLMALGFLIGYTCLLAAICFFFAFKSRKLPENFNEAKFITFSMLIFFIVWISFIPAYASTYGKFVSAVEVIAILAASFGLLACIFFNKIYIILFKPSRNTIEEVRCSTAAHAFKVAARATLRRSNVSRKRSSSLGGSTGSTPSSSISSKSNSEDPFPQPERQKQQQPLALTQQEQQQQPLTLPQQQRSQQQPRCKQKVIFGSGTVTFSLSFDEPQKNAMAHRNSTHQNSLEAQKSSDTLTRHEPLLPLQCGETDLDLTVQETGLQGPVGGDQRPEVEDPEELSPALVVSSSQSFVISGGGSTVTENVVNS
# Experimental: Human parathyroid glands, were obtained from patients undergoing surgical removal of parathyroid tissue for primary or uremic hyperparathyroidism (uremic HPT), and were treated similarly to bovine tissue.
# The cells were then pelleted, resuspended in the same buffer, but lacking the ester, and incubated a further 15 minutes at 37° C. The cells were subsequently washed twice with PCB containing 0.5 mM CaCl2 and 0.5% BSA and maintained at room temperature (about 20° C.). Immediately before use, the cells were diluted five-fold with prewarmed 0.5 mM CaCl2 -PCB to obtain a final BSA concentration of 0.1%. The concentration of cells in the cuvette used for fluorescence recording was 1-2×10^6 /ml.
# The fluorescence of indicator-loaded cells was measured at 37° C. in a spectrofluorimeter (Biomedical Instrumentation Group, University of Pennsylvania, Philadelphia, Pa.) equipped with a thermostated cuvette holder and magnetic stirrer using excitation and emission wavelengths of 340 and 510 nm, respectively. […] Leakage of dye is dependent on temperature and most occurs within the first 2 minutes after warming the cells in the cuvette. Dye leakage increases only very slowly thereafter. To correct the calibration for dye leakage, cells were placed in the cuvette and stirred at 37° C. for 2-3 minutes. The cell suspension was then removed, the cells pelleted, and the supernatant returned to a clean cuvette. […] This estimate was subtracted from the apparent Fmin.
# [5] = system: osteoclast calcium receptor; test: increase in [Ca2+]i in indo-1-loaded rat osteoclasts; assay type: cell-based
# [6] = system: cyclic AMP formation in bovine parathyroid cells; assay type: cell-based
# Experimental: Cells were incubated as above for PTH secretion studies and at the end of the incubation, a 0.15-ml sample was taken and transferred to 0.85 ml of hot (70° C.) water and heated at this temperature for 5-10 minutes. The tubes were subsequently frozen and thawed several times and the cellular debris sedimented by centrifugation. Portions of the supernatant were acetylated and cyclic AMP concentrations determined by radioimmunoassay.
# Each value is the mean±SEM of three experiments.
# [7] = system: PTH secretion from bovine parathyroid cells; test: PTH secretion from bovine parathyroid cells; assay type: cell-based; conditions: bovine parathyroid cells
# Experimental: PTH secretion was measured by first suspending cells in PCB containing 0.5 mM CaCl2 and 0.1% BSA.
# [8] = target: T2, calcium receptor expressed from human parathyroid cell mRNA in Xenopus oocytes (Homo sapiens, UniProt P41180); test: response of Xenopus oocytes injected with human parathyroid mRNA; assay type: cell-based
# T2 sequence (P41180 20-1078): T1 sequence (P41180 20-1078)
# Experimental: Oocytes were injected with poly(A)^+ -enriched mRNA from human parathyroid tissue (hyperplastic glands from a case of secondary HPT).
# Glass capillary tubes (1 mm diameter) were pulled to a fine tip and manually broken to achieve a tip diameter of about 15 μmeters. A droplet of mRNA (1 ng/nl in diethylpyrocarbonate (DEPC)-treated water) was placed onto […]® and drawn into the capillary tube by suction. The capillary tube was then connected to a picospritzer (WPI Instruments) and the volume of the air-pulsed droplets adjusted to deliver 50 ng of mRNA (typically 50 nl). A 35-mm culture dish with a patch of nylon stocking fixed to the bottom was used to secure the oocytes during injection of mRNA into the vegetal pole. The injected oocytes were placed into a 35-mm culture dish containing MBS, 100 μg/ml penicillin and 100 μg/ml streptomycin and incubated at 18° C. for 3 days.
# Following incubation, an oocyte was placed into a 100-μl plastic chamber and superfused with MBS at a flow rate of 0.5 ml/min using a peristaltic pump. Test molecules or inorganic polycations were added by rapidly moving the tubing into different buffers. Recording and current-passing electrodes were constructed from thin-wall capillary tubing pulled to a resistance of 1-3 Mohms and filled with 3M KCl. […] Currents were recorded directly onto a strip chart recorder.
# Using this screen allows one to test for an action directly on the calcium receptor. Oocytes expressing the calcium receptor also responded to several molecules active on intact parathyroid cells when screened as follows. […] This offers rather compelling evidence showing that these molecules act on the calcium receptor or on some other protein intimately associated with its function.
# net positive charge = assay type: physicochemical
smiles,measurement,setting,value
"COc1cccc([C@@H](C)NCCCc2ccccc2Cl)c1 [NPS R-568, (R)-(+)-N-[3-(2-chlorophenyl)propyl]-amethyl-α-3-methoxybenzylamine]",circulating levels of PTH,circulating PTH in rats,"decreases in the levels of serum PTH; also recorded: rapid, dose-dependent decrease"
same,hypocalcemic response in thyroidectomized vs sham-operated animals,[1],equal in magnitude to that produced in sham-operated animals
same,serum ionized calcium in human,[2],decrease in serum ionized calcium concentration
same,hypocalcemic response after complete nephrectomy,[3],only marginally affected
NC[C@@H]1O[C@H](O[C@H]2[C@@H](O)[C@H](O[C@@H]3[C@@H](O)[C@H](N)C[C@H](N)[C@H]3O[C@H]3O[C@H](CN)[C@@H](O)[C@H](O)[C@H]3N)O[C@@H]2CO)[C@H](N)[C@@H](O)[C@@H]1O [Neomycin],increase in [Ca2+]i (words),[4]; 20 μM,evoked a large increase
same,increase in [Ca2+]i (words),"[4]; human adenomatous tissue, 0.5 mM extracellular Ca2+, neomycin B 10 μM in FIG. 19, listed as Neomycin B","not only a transient, but additionally a steady-state increase"
same,increase in [Ca2+]i (words),"[4]; human adenomatous tissue, 0.5 mM extracellular Ca2+, neomycin B 10 μM in FIG. 19, listed as neomycin B",transient and sustained increases
same,block of [Ca2+]i response to 25 mM extracellular Ca2+,[5],did not block the increase
same,increase in [Ca2+]i in osteoclasts,[5],failed to evoke any increase
same,"increase in [Ca2+]i in osteoclasts, overall",[5],none of these caused any large increase
same,increase in [Ca2+]i in rat osteoclasts,[5],Neither
same,effect on basal [Ca2+]i and on extracellular Ca2+-elicited increase,[5]; 5 mM,without effect on basal
same,"increase in [Ca2+]i in osteoclasts, overall",[5]; listed as neomycin B,fail to evoke increases
same,isoproterenol-induced cyclic AMP,[6],depressed isoproterenol-induced increases
same,inhibition of PTH secretion,[7],inhibited PTH secretion to the same extent
same,response of water-injected oocytes,"[8]; 10 mM, water-injected control oocytes",failed to cause any change in the current
same,concentration effective in oocytes,[8]; human parathyroid mRNA,100 µM
same,response of oocytes expressing calcium receptor,"[8]; human parathyroid mRNA, listed as Neomycin B",evoked oscillatory increases
same,response of oocytes expressing calcium receptor,"[8]; human parathyroid mRNA, listed as neomycin B",evokes oscillating increases
same,Net (+) Charge (Table 1),net positive charge,+6
same,net positive charge,net positive charge,+6
same,net positive charge,net positive charge; pH 7.3,+6
